15 compounds from US20090069373A1, “Quinoline Acids” (Wyeth, priority 2007, published 2009) can be followed below.

For one test, the system named is ABCA1 gene. Description: Quantitative analysis of ABCA1 gene regulation in THP-1 cells (real-time RT-PCR). In kind it is cell-based, human. Particulars: differentiated THP-1 cells, ABCA1 mRNA, 18 hrs; for EC50: Homo sapiens; for THP cells ABCA1 Ag. (%): LXR agonist reference at 1.0 uM as positive control. The method, then: Quantitative Analysis of ABCA1 Gene Regulation in THP-1 Cells. […] Materials and Methods Cell culture: The THP-1 monocytic cell line (ATCC # TIB-202) was obtained from American Type Culture Collection (Manassas, Va.) and cultured in RPMI 1640 medium (Gibco, Carlsbad, Calif.) containing 10% FBS, 2 mM L-glutamine, and 55 uM beta-Mercaptoethanol (BME). […] Louis, Mo.) for three days to induce differentiation into adherent macrophages. Differentiated THP-1 cells were treated with test compounds or ligands dissolved in DMSO (Sigma, D-8779) in culture medium lacking phorbal ester. […] L., J. Med. Chem. (2000), 45:1963-1966.). Results of antagonist analysis are expressed as % antagonism and IC50 (in μM).
(Real-time PCR tracks product formation cycle by cycle.)

The next test concerns the target T1, human LXRβ (Homo sapiens, UniProt P55055).
T1 construct: biotin (biotinylated; biotinylation tag not described); made in house; host or cells: E. coli
T1 sequence (P55055 1-460): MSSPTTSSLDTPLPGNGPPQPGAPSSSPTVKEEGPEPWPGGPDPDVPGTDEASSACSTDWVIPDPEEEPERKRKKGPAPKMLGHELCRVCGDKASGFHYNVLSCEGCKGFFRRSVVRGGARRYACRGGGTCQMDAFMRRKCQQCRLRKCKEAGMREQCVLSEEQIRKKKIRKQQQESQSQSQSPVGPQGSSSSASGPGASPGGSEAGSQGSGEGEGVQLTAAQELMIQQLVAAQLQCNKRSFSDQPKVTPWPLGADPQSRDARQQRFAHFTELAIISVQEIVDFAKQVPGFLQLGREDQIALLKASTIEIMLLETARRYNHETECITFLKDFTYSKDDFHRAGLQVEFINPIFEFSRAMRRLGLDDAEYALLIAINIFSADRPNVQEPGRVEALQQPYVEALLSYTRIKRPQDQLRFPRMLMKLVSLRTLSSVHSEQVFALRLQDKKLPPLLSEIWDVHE
Description: Ligand-binding test procedure for human LXRβ (3H T0901317 competition, flash plates). Particulars: for Binding ratio a/b: IC50 (μM) LXRα binding/IC50 (μM) LXRβ binding; for IC50: biotinylated hLXRβ, tracer 3H T0901317.

The target in a further test is T2, human LXRα (Homo sapiens, UniProt Q13133).
T2 construct: biotin (biotinylated; biotinylation tag not described); made in house; host or cells: E. coli
T2 sequence (Q13133 1-447): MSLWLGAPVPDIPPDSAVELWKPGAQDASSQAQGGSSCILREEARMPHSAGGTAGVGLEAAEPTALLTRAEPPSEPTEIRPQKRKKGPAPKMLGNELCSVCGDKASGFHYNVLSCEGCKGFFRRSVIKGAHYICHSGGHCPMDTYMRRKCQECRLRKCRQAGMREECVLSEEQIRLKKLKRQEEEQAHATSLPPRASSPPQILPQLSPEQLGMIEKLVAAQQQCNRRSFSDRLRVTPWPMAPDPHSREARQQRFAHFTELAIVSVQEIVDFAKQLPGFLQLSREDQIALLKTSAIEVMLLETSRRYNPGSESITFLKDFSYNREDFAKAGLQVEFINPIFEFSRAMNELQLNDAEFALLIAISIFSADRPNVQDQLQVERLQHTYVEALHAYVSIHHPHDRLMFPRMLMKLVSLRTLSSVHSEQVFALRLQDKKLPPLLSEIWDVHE
Put plainly: Ligand-binding test procedure for human LXRα (3H T0901317 competition, flash plates). Particulars: biotinylated hLXRα, tracer 3H T0901317. The method in brief:
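Competition binding of test ligands against 5 nM ³H tracer solution (pre-mix concentration) on biotinylated hLXRα from E. coli extract, captured on streptavidin flash plates (Bmax ~4000 cpm). Ligand dilution series made in DMSO. Incubated overnight at +4 °C; bound radioactivity counted after washing.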

As to `O=C(O)Cc1cccc2c(NCc3cccc(-c4ccnc5c(C(F)(F)F)cccc45)c3)cccc12` [Example 1, [5-({3-[8-(Trifluoromethyl)quinolin-4-yl]benzyl}amino)-1-naphthyl]acetic acid], in the test with ABCA1 gene, it took 3760 nM to reach a half-maximal effect (EC50) and the “THP cells ABCA1 Ag. (%)” value was determined as 91.15%. Besides, at human LXRβ, the Binding ratio a/b stood at 48 and the 50% inhibitory concentration (IC50) (as a rule, the point on the concentration scale where inhibition reaches its midpoint) came out at 15 nM. Further, the 50% inhibitory concentration (IC50) at human LXRα was determined as 745 nM.
For the compound `O=C(O)Cc1cccc2c(NCc3cncc(-c4c(Cc5ccccc5)cnc5c(C(F)(F)F)cccc45)c3)cccc12` [Example 3, {5-[({5-[3-Benzyl-8-(trifluoromethyl)quinolin-4-yl]pyridin-3-yl}methyl)amino]-1-naphthyl}acetic acid], in the test with ABCA1 gene, the EC50 (commonly the concentration at which the effect is half-maximal) was 4760 nM and the “THP cells ABCA1 Ag. (%)” value was found to be 69.1%. For the same compound, on human LXRβ, the Binding ratio a/b came out at 32 and the IC50 worked out at 30 nM. On human LXRα, this compound yielded a half-inhibitory concentration (IC50) of 964 nM.
For `O=C(O)Cc1cccc2c(OCc3cccc(-c4ccnc5c(C(F)(F)F)cccc45)c3)cccc12` [Example 5, [5-({3-[8-(Trifluoromethyl)quinolin-4-yl]benzyl}oxy)-1-naphthyl]acetic acid], in that order: 3390 nM, 69.4%, 30, 26 nM and 779 nM.
In the case of `Cc1cnc2c(C(F)(F)F)cccc2c1-c1cccc(COc2cccc3c(CC(=O)O)cccc23)c1` [Example 9], in the test with ABCA1 gene, a half-maximal effect (EC50) was put at 1140 nM and the “THP cells ABCA1 Ag. (%)” value was found to be 122.6%. At human LXRβ, the Binding ratio a/b worked out at 22 and the IC50 came out at 13 nM. On human LXRα, this compound gave a half-inhibitory concentration (IC50) of 294 nM.
For `Cc1cnc2c(C(F)(F)F)cccc2c1-c1cccc(CNc2cccc3c(CC(=O)O)cccc23)c1` [Example 13, [5-({3-[3-methyl-8-(trifluoromethyl)quinolin-4-yl]benzyl}amino)-1-naphthyl]acetic acid], in that order: 2630 nM, 107.8%, 22, 10 nM and 211 nM.
On to `O=C(O)c1cnc(Oc2cccc(-c3c(Cc4ccccc4)cnc4c(C(F)(F)F)cccc34)c2)cn1` [Example 121, 5-{3-[3-Benzyl-8-(trifluoromethyl)quinolin-4-yl]phenoxy}pyrazine-2-carboxylic acid], for which, on human LXRβ, the Binding ratio a/b is listed as 1 and the IC50 came to 2300 nM. At human LXRα, this compound showed a half-maximal inhibitory concentration (IC50) of 1710 nM.
Turning to `O=C(O)c1cc(Br)cc(Oc2cccc(-c3c(Cc4ccccc4)cnc4c(Cl)cccc34)c2)c1` [Example 122, 3-[3-(3-Benzyl-8-chloroquinolin-4-yl)phenoxy]-5-bromobenzoic acid], on human LXRβ, the Binding ratio a/b came out at 2 and the IC50 turned out to be 772 nM. At human LXRα, this compound registered a 50% inhibitory concentration (IC50) of 1510 nM.
Turning to `O=C(O)c1cc(F)cc(Oc2cccc(-c3c(Cc4ccccc4)cnc4c(Cl)cccc34)c2)c1` [Example 123, 3-[3-(3-Benzyl-8-chloroquinolin-4-yl)phenoxy]-5-fluorobenzoic acid], on human LXRβ, the Binding ratio a/b was 2 and the IC50 was found to be 481 nM. In addition, the 50% inhibitory concentration (IC50) at human LXRα turned out to be 723 nM.
Regarding `O=C(O)c1cccc(Oc2cccc(-c3c(Cc4ccccc4)cnc4c(Cl)cccc34)c2)c1` [Example 125, 3-[3-(3-Benzyl-8-chloroquinolin-4-yl)phenoxy]benzoic acid], at human LXRβ, the Binding ratio a/b was 1 and the IC50 was 228 nM. This compound also showed an IC50 on human LXRα of 267 nM.
For `O=C(O)c1cccc(Oc2cccc(-c3c(Cc4ccccc4)cnc4c(C(F)(F)F)cccc34)c2)c1` [Example 126, 3-{3-[3-Benzyl-8-(trifluoromethyl)quinolin-4-yl]phenoxy}benzoic acid], on human LXRβ, the Binding ratio a/b was 2 and the IC50 turned out to be 135 nM. Besides, at human LXRα, the IC50 is 241 nM.
As to `O=C(O)c1ccc(Cn2ccc3c(-c4c(Cc5ccccc5)cnc5c(C(F)(F)F)cccc45)cccc32)cc1` [Example 127, 4-({4-[3-Benzyl-8-(trifluoromethyl)quinolin-4-yl]-1H-indol-1-yl}methyl)benzoic acid], at human LXRβ, the Binding ratio a/b is 1. For the same compound, the IC50 at human LXRβ is 2460 nM; on human LXRα it was 2140 nM.
Consider `Cc1cc(C(=O)O)ccc1C#Cc1cccc(-c2c(Cc3ccccc3)cnc3c(C(F)(F)F)cccc23)c1` [Example 128, 4-({3-[3-Benzyl-8-(trifluoromethyl)quinolin-4-yl]phenyl}ethynyl)-3-methylbenzoic acid], for which the Binding ratio a/b at human LXRβ came to 7. The figures for the IC50 at human LXRβ and on human LXRα were 19 nM and 137 nM, respectively.
On to `Cc1ccc(C(=O)O)cc1C#Cc1cccc(-c2c(Cc3ccccc3)cnc3c(C(F)(F)F)cccc23)c1` [Example 129, 3-({3-[3-Benzyl-8-(trifluoromethyl)quinolin-4-yl]phenyl}ethynyl)-4-methylbenzoic acid], for which, at human LXRβ, the Binding ratio a/b is 1 and the half-inhibitory concentration (IC50) turned out to be 605 nM. For the same compound, at human LXRα, the IC50 came to 656 nM.
Take `O=C(O)c1cccc(-c2cccc(-c3c(Cc4ccccc4)cnc4c(C(F)(F)F)cccc34)c2)c1` [Example 130, 3′-[3-Benzyl-8-(trifluoromethyl)quinolin-4-yl]biphenyl-3-carboxylic acid]: the half-inhibitory concentration (IC50) on human LXRβ was 2380 nM; on human LXRα, 1320 nM.
As to `COc1ccc(C(=O)O)cc1C#Cc1cccc(-c2c(Cc3ccccc3)cnc3c(C(F)(F)F)cccc23)c1` [Example 131, 3-({3-[3-Benzyl-8-(trifluoromethyl)quinolin-4-yl]phenyl}ethynyl)-4-methoxybenzoic acid], on human LXRβ, the Binding ratio a/b was 2 and the IC50 amounted to 1470 nM. On human LXRα, this compound showed an IC50 of 2630 nM.
